Experimental data reported in patent US10441668B2, “System and method for enhanced mass spectrometry imaging” (University Health Network, priority 2014, dated 2019).
“And” between values parts separate entries of the source, which are not always exact repeats. Equal values may be shown once.

How the values were obtained:
breast cancer tumors = assay: kinetic DCE magnetic resonance imaging of contrast agent passively targeted to breast cancer tumors in live mice; format: in vivo; details: intravenous injection into tail vein
Protocol: Referring now to FIGS. 3A and 3B, shown therein are the results of kinetic DCE magnetic resonance imaging of an exogenous contrast agent (in this example Gadoteridol) that was passively targeted to breast cancer tumors in live mice. In both cases, Gadoteridol was intravenously injected into the tail vein of mice under anesthesia with isofluorane.
A first MR image 305 was taken at the time of injection. […] A second MR image 310 was taken at 5 minutes post injection.
As indicated by legend 322, the maximum signal intensity appears to reach its peak in plot 320 after 5 minutes. The exogenous agent was seen to penetrate and diffuse into the tumor core from the peripheries of the tumor.
A second MR image 345 was taken at 5 minutes post injection.
(§1) To obtain the images shown below in FIGS. 5A-5C and FIGS. 6A-6C, SCID mice (from Harlan Laboratories) were inoculated in the lower mammary fat pad with 3×106 human MDA-MB-231 triple negative metastatic breast cancer cells and housed for 3 weeks to grow tumors up to 1 cm in diameter (caliper measurements). […] Throughout the imaging sessions, the animals' breathing was monitored using a respiratory pad and a respiratory tracking system (when imaged on the 1T Aspect or 7T Bruker MRI system, ˜30 min per imaging session).

[1] = tested on: human MDA-MB-231 breast cancer tumors; assay: two-dimensional DESI-MS imaging of contrast agent distribution in excised human breast cancer tumor slices; format: in vivo, SCID mice; details: 5 minutes post injection, DESI-MS images vs H&E stained images
Protocol: All the DESI-MS experiments described herein were performed using a Thermo Fisher Scientific LTQ mass spectrometer (San Jose, Calif., USA). Data was acquired and processed using QualBrowser Xcalibur 2.0 (Thermo Fisher Scientific). Mass spectra were acquired as full scans, in the positive ion mode, over the mass to charge ratio range from m/z 500 to 900. Typical instrumental parameters used were 4.5 kV capillary voltage and 275° C. capillary temperature. An H2O-MeOH (1:1) solution was used as the spray solvent and delivered at the flow rate of 1.5 μL min-1. Methanol (MeOH) and ultra-pure water (H2O), both HPLC-MS grade, were purchased from Sigma Aldrich (Oakville, ON, Canada). The sprayer-to-surface distance was 1.0 mm, the sprayer to inlet distance was 6-8 mm, an incident spray was set at 54°, and a collection angle of 10° was used. […]
as §1, with “session). […]” for “session).”

breast cancer tumor = assay: ICP-MS quantification of Gd in sections of breast cancer tumor after acid extraction; format: in vivo, mice; details: 200 μm thick tumor slice
Description: Referring now to FIG. 10B, shown therein are the results of quantitative analysis of the distribution of an exogenous agent in a section of a breast cancer tumor. Here, ICP-MS was used to quantify the amount of Gadolinium (Gd) element in a 200 um thick section of the breast cancer tumor shown in FIG. 10A. The distribution of all three contributing Gadoteridol adducts (discussed above with reference to FIG. 4) are shown overlaid on an image of the tumor section.
To validate the ion abundances shown in the DESI-MS image 1000, a 200 μm think-slice of tumor was sectioned into three areas (1025, 1030 and 1040). The total tissue weight in each section was determined using an analytical balance and Gadoteridol was acid extracted for ICP-MS quantification. Gadoteridol was extracted using excess volume (e.g., 3.5 mls for every 1 mg tissue material in two rounds) of 10% perchloric acid through mixing and vortexing followed by a 30 min centrifugation at 21,000G taking the supernatant that was then diluted 5× with double distilled water. For ICP-MS analysis both the standard Gadoteridol solutions and the extracted samples were taken up in excess 2% nitric acid (1000 fold dilution) and were subjected to ICP-MS quantification using a Nexlon 350 ICP-MS (Perkin-Elmer).

## CC(O)CN1CCN(CC(=O)[O-])CCN(CC(=O)[O-])CCN(CC(=O)[O-])CC1.[Gd+3] (centres unmarked) [Gadoteridol]
Breast cancer tumors
  time post injection at which the tumor site exhibits maximal contrast enhancement (MR signal intensity peak): 5 min and < 5 min
[1]
  signal in necrotic region of the breast cancer tumor: no Gadoteridol signal
Breast cancer tumor; first area 1025, ICP-MS
  absolute value of Gd element in tumor section, first area 1025: 54 pg
Breast cancer tumor; second area 1030, ICP-MS
  absolute value of Gd element in tumor section, second area 1030: 12.8 pg
Breast cancer tumor; third area 1040, ICP-MS
  absolute value of Gd element in tumor section, third area 1040: 27.5 pg
